Patent publication US20180244611A1, “Modulators of the Cystic Fibrosis Transmembrane Conductance Regulator Protein and Methods of Use” (AbbVie S.à.r.l., priority 2017, published 2018)
pEC50: −log10 of the molar value.

Assays:
F508delCFTR [1] = target: T1, F508delCFTR (Homo sapiens, UniProt P13569, DEL508-508); experiment: Cell Surface Expression-Horse Radish Peroxidase (CSE-HRP) assay, test compound without co-corrector; type: cell-based; conditions: for Emax: maximum at any tested concentration, without co-corrector; for pEC50: test compound without co-corrector;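 on Emax: percent of on-plate 2 µM positive control corrector response over DMSO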
T1 construct: expressed in transfected cells; host or cells: CFBE41o- human lung-derived epithelial cells (CFBE41o-F508delCFTR-HRP), doxycycline-inducible
T1 sequence (P13569 with tags, fused parts or gaps DEL508-508): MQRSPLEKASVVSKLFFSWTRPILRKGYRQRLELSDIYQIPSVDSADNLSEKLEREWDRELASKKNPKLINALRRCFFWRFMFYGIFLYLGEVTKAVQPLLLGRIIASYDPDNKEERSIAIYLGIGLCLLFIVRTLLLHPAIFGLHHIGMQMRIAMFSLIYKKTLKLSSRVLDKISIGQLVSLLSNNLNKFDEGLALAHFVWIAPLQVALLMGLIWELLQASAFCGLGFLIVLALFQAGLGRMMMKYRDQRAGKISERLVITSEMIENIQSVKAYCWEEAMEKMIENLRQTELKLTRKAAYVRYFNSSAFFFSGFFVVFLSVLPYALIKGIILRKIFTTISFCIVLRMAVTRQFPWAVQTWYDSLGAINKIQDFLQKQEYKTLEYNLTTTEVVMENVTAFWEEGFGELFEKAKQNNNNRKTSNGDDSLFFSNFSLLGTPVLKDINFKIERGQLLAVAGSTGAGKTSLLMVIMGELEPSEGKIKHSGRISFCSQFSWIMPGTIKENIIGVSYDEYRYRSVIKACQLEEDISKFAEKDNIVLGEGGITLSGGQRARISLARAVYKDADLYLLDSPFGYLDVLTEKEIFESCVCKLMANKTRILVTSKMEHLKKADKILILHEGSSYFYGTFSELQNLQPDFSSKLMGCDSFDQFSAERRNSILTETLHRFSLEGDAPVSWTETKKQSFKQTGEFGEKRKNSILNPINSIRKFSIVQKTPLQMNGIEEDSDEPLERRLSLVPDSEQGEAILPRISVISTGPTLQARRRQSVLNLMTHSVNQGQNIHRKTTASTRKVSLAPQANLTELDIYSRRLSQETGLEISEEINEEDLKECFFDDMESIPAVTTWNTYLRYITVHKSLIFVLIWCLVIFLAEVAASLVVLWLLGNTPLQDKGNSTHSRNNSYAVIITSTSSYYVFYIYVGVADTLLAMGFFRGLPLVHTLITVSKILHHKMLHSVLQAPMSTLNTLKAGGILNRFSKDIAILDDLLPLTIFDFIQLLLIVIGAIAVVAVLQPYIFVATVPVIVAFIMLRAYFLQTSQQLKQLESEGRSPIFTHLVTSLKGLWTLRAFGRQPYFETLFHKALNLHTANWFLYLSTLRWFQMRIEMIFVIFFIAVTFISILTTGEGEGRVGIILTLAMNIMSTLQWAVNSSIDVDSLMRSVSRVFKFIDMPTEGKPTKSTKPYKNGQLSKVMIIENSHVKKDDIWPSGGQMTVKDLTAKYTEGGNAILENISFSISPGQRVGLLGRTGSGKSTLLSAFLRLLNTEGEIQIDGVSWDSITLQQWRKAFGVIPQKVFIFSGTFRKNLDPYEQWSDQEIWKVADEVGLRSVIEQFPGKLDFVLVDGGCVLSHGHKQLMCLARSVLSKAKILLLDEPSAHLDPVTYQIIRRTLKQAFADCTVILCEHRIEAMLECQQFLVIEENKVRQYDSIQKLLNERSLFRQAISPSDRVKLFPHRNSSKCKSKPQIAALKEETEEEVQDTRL
Outline: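 Compound without co-corrector was tested at eight 3-fold concentrations, top 20 μM, for 18-24 h at 33° C on doxycycline-induced (0.5 μg/mL, 72 h) CFBE41o- F508delCFTR-HRP cells. After DPBS washes, luminol luminescence gave % activity relative to on-plate positive control minus DMSO; EC50 came from triplicate-plate sigmoidal fitting.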

F508delCFTR [2] = target: T1, F508delCFTR; experiment: Cell Surface Expression-Horse Radish Peroxidase (CSE-HRP) assay, test compound with co-corrector; type: cell-based; conditions: for Maximum % activity (with co-corrector): maximum at any tested concentration;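 on Maximum % activity (with co-corrector): percent of 2 µM positive control corrector over DMSO; co-corrector is that same compound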
Outline: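 Surface-expression read-out: luminol luminescence from an HRP tag in the fourth exofacial loop of F508delCFTR, in doxycycline-induced (0.5 μg/mL, 72 h) CFBE41o- cells. Compound plus 2 μM co-corrector added for 18-24 h at 33° C., 8-point 3-fold series up to 20 μM. EC50 from a sigmoidal fit with variable Hill slope, normalised to positive control, triplicate plates.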

[3] = normalized to positive control, with 2 μM co-corrector
[4] = normalized to on-plate positive control
[5] = CSE-HRP assay, test compound with 2 μM co-corrector
[6] = normalized to on-plate positive control, with 2 μM co-corrector

| Emax (F508delCFTR [1]; normalized to positive control) | pEC50 (F508delCFTR [1]) | Maximum % activity (with co-corrector) (F508delCFTR [2]; [3]) | pEC50 (F508delCFTR [2]; with 2 μM co-corrector) | pEC50 (F508delCFTR [1]; CSE-HRP assay) | Emax (F508delCFTR [1]; [4]) | pEC50 (F508delCFTR [2]; [5]) | Maximum % activity (with co-corrector) (F508delCFTR [2]; [6]) | Compound |
| --- | --- | --- | --- | --- | --- | --- | --- | --- |
| ≥ 150% | > 5.52 | +++ (≥350) | > 5.52 | – | – | – | – | COc1ccc(C2CCC2)c2c1C(C(=O)NS(=O)(=O)c1cccc3ncn(C)c13)CC2 (stereo not shown) [Example I-133, 4-cyclobutyl-7-methoxy-N-(1-methyl-1H-benzimidazole-7-sulfonyl)-2,3-dihydro-1H-indene-1-carboxamide] |
| ≥ 150% | 5.00 to 5.52 | +++ (≥350) | > 5.52 | – | – | – | – | COc1ccc(C2CCC2)c2c1C(C(=O)NS(=O)(=O)c1cccn3nccc13)CC2 (stereo not shown) [Example I-135, 4-cyclobutyl-7-methoxy-N-(pyrazolo[1,5-a]pyridine-4-sulfonyl)-2,3-dihydro-1H-indene-1-carboxamide] |
| ≥ 150% | > 5.52 | +++ (≥350) | > 5.52 | – | – | – | – | COc1ccc(C2CCC2)c2c1C(C(=O)NS(=O)(=O)c1cccn3nccc13)C2 (stereo not shown) [Example I-136, 2-cyclobutyl-5-methoxy-N-(pyrazolo[1,5-a]pyridine-4-sulfonyl)bicyclo[4.2.0]octa-1,3,5-triene-7-carboxamide] |
| ≥ 150% | 5.00 to 5.52 | +++ (≥350) | > 5.52 | – | – | – | – | COc1ccc(C2CCCO2)c2c1C(C(=O)NS(=O)(=O)c1cccc3ccccc13)CC2 (stereo not shown) [Example I-138, 7-methoxy-N-(naphthalene-1-sulfonyl)-4-(oxolan-2-yl)-2,3-dihydro-1H-indene-1-carboxamide] |
| ≥ 150% | 5.00 to 5.52 | +++ (≥350) | > 5.52 | – | – | – | – | COCc1ccc(OC)c2c1CCC2C(=O)NS(=O)(=O)c1cccc2ccccc12 (stereo not shown) [Example I-139, 7-methoxy-4-(methoxymethyl)-N-(naphthalene-1-sulfonyl)-2,3-dihydro-1H-indene-1-carboxamide] |
| ≥ 150% | > 5.52 | +++ (≥350) | > 5.52 | – | – | – | – | COc1ccc(CC(C)C)c2c1C(C(=O)NS(=O)(=O)c1cccc3ncccc13)CC2 (stereo not shown) [Example I-140, 7-methoxy-4-(2-methylpropyl)-N-(quinoline-5-sulfonyl)-2,3-dihydro-1H-indene-1-carboxamide] |
| ≥ 150% | > 5.52 | +++ (≥350) | > 5.52 | – | – | – | – | COc1ccc(C2CCC2)c2c1[C@H](C(=O)NS(=O)(=O)c1cccc3cnn(C)c13)C2 [Example I-144, (7R)-2-cyclobutyl-5-methoxy-N-(1-methyl-1H-indazole-7-sulfonyl)bicyclo[4.2.0]octa-1,3,5-triene-7-carboxamide] |
| ≥ 150% | > 5.52 | +++ (≥350) | > 5.52 | – | – | – | – | COc1ccc(C2CCC2)c2c1[C@H](C(=O)NS(=O)(=O)c1cccc3c1CCCN3)C2 [Example I-146, (7R)-2-cyclobutyl-5-methoxy-N-(1,2,3,4-tetrahydroquinoline-5-sulfonyl)bicyclo[4.2.0]octa-1,3,5-triene-7-carboxamide] |
| ≥ 150% | > 5.52 | +++ (≥350) | > 5.52 | – | – | – | – | COc1cccc2c1C(C(=O)NS(=O)(=O)c1cccc3ccccc13)CC2(C)C (stereo not shown) [Example I-149, 7-methoxy-3,3-dimethyl-N-(naphthalene-1-sulfonyl)-2,3-dihydro-1H-indene-1-carboxamide] |
| ≥ 150% | 5.00 to 5.52 | +++ (≥350) | > 5.52 | – | – | – | – | COc1ccc(C2CCC2)c2c1[C@H](C(=O)NS(=O)(=O)c1cccn3nccc13)CC2 [Example I-151, (1R)-4-cyclobutyl-7-methoxy-N-(pyrazolo[1,5-a]pyridine-4-sulfonyl)-2,3-dihydro-1H-indene-1-carboxamide] |
| ≥ 150% | 5.00 to 5.52 | +++ (≥350) | > 5.52 | – | – | – | – | COc1cccc2c1C(C(=O)NS(=O)(=O)c1cccc3ncccc13)CC2(C)C (stereo not shown) [Example I-152, 7-methoxy-3,3-dimethyl-N-(quinoline-5-sulfonyl)-2,3-dihydro-1H-indene-1-carboxamide] |
| ≥ 150% | 5.00 to 5.52 | +++ (≥350) | > 5.52 | – | – | – | – | COc1cccc2c1[C@@H](C(=O)NS(=O)(=O)c1cccc3ncccc13)CC2(C)C [Example I-153, (1S)-7-methoxy-3,3-dimethyl-N-(quinoline-5-sulfonyl)-2,3-dihydro-1H-indene-1-carboxamide] |
| ≥ 150% | 5.00 to 5.52 | +++ (≥350) | > 5.52 | – | – | – | – | COc1cccc2c1[C@H](C(=O)NS(=O)(=O)c1cccc3ncccc13)CC2(C)C [Example I-154, (1R)-7-methoxy-3,3-dimethyl-N-(quinoline-5-sulfonyl)-2,3-dihydro-1H-indene-1-carboxamide] |
| ≥ 150% | 5.00 to 5.52 | +++ (≥350) | > 5.52 | – | – | – | – | COc1ccc(C2CCC2)c2c1[C@H](C(=O)NS(=O)(=O)c1cccc3ncc(C)n13)C2 [Example I-155, (7R)-2-cyclobutyl-5-methoxy-N-(3-methylimidazo[1,2-a]pyridine-5-sulfonyl)bicyclo[4.2.0]octa-1,3,5-triene-7-carboxamide] |
| 50 to 150% | 5.00 to 5.52 | +++ (≥350) | 5.00 to 5.52 | – | – | – | – | Cc1ccccc1S(=O)(=O)NC(=O)C1CCc2c(Cl)cccc21 (stereo not shown) [Example II-3, 4-chloro-N-(2-methylbenzene-1-sulfonyl)-2,3-dihydro-1H-indene-1-carboxamide] |
| 50 to 150% | 5.00 to 5.52 | +++ (≥350) | 5.00 to 5.52 | – | – | – | – | Cc1ccccc1S(=O)(=O)NC(=O)C1CCc2c(-c3ccccc3)cccc21 (stereo not shown) [Example II-36, N-(2-methylbenzene-1-sulfonyl)-4-phenyl-2,3-dihydro-1H-indene-1-carboxamide] |
| < 50% | 5.00 to 5.52 | ++ (≥150 and <350) | 5.00 to 5.52 | – | – | – | – | O=C(NS(=O)(=O)c1cccc2ccccc12)C1(CN2CCCC2)CCc2c(Cl)cccc21 (stereo not shown) [Example II-47, 4-chloro-N-(naphthalene-1-sulfonyl)-1-[(pyrrolidin-1-yl)methyl]-2,3-dihydro-1H-indene-1-carboxamide] |
| < 50% | ≤ 5.00 | + (<150) | ≤ 5.00 | – | – | – | – | CCC1(C(=O)NS(=O)(=O)N2CCCc3ccccc32)CCc2c(Cl)cccc21 (stereo not shown) [Example II-80, 4-chloro-N-(3,4-dihydroquinoline-1(2H)-sulfonyl)-1-ethyl-2,3-dihydro-1H-indene-1-carboxamide] |
| 50 to 150% | 5.00 to 5.52 | +++ (≥350) | > 5.52 | – | – | – | – | O=C(NS(=O)(=O)c1cccc2ccccc12)C1(CO)CCc2c(Cl)cccc21 (stereo not shown) [Example II-81, 4-chloro-1-(hydroxymethyl)-N-(naphthalene-1-sulfonyl)-2,3-dihydro-1H-indene-1-carboxamide] |
| ≥ 150% | 5.00 to 5.52 | +++ (≥350) | > 5.52 | – | – | – | – | COc1cccc2c1C(C(=O)NS(=O)(=O)c1cccc3ccccc13)CCC2 (stereo not shown) [Example II-115, 8-methoxy-N-(naphthalene-1-sulfonyl)-1,2,3,4-tetrahydronaphthalene-1-carboxamide] |
| 50 to 150% | 5.00 to 5.52 | +++ (≥350) | 5.00 to 5.52 | – | – | – | – | O=C(NS(=O)(=O)c1cccc2ccccc12)C1CCCc2c(Cl)ccc(O)c21 (stereo not shown) [Example II-128, 5-chloro-8-hydroxy-N-(naphthalene-1-sulfonyl)-1,2,3,4-tetrahydronaphthalene-1-carboxamide] |
| – | – | – | – | ≤ 5.00 | < 50% | 5.00 to 5.52 | + (<150) | O=C(NS(=O)(=O)c1cccc2ccccc12)C1(CCN2CCCC2)CCc2c(Cl)cccc21 (stereo not shown) [Example III-111, 4-chloro-N-(naphthalene-1-sulfonyl)-1-[2-(pyrrolidin-1-yl)ethyl]-2,3-dihydro-1H-indene-1-carboxamide] |
| – | – | – | – | 5.00 to 5.52 | < 50% | 5.00 to 5.52 | ++ (≥150 and <350) | COCCN(C)CCC1(C(=O)NS(=O)(=O)c2cccc3ccccc23)CCc2c(Cl)cccc21 (stereo not shown) [Example III-112, 4-chloro-1-{2-[(2-methoxyethyl)(methyl)amino]ethyl}-N-(naphthalene-1-sulfonyl)-2,3-dihydro-1H-indene-1-carboxamide] |
| – | – | – | – | ≤ 5.00 | < 50% | ≤ 5.00 | + (<150) | CCC1(C(=O)N(C)S(=O)(=O)c2cccc3ccccc23)CCc2c(Cl)cccc21 (stereo not shown) [Example III-150, 4-chloro-1-ethyl-N-methyl-N-(naphthalene-1-sulfonyl)-2,3-dihydro-1H-indene-1-carboxamide] |
| – | – | – | – | ≤ 5.00 | < 50% | ≤ 5.00 | + (<150) | COCC1(C(=O)NS(=O)(=O)c2cccc3ccccc23)CCc2c(Cl)cccc21 (stereo not shown) [Example III-151, 4-chloro-1-(methoxymethyl)-N-(naphthalene-1-sulfonyl)-2,3-dihydro-1H-indene-1-carboxamide] |
